Data published in PubChem BioAssay AID1845215 (Molecular Pharmacology Branch, DTP, NCI, 2023).
pIC50: −log10 of the molar value.

System: SW 1271 complex tumor spheroid viability
Test: Anticancer human tumor SW 1271 cell line growth inhibition;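 further: spheroids exposed to agents for seven days before readout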;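 on viability, T/C: percent of DMSO vehicle control luminescence so 100% = vehicle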
Conditions: for pIC50: curve of first compound; for viability, T/C: stronger effect = lower value
How it was run: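 Single agents and combinations were tested on spheroids built from tumor cells plus HUVEC and hMSC, at half-log dilutions starting at or near clinical Cmax, else 10 microM; final DMSO 0.25% (v/v).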

[1] = second compound 1 µM, first compound 0.0316 µM
[2] = second compound 1 µM, first compound 0.1 µM
[3] = second compound 1 µM, first compound 0.316 µM
[4] = second compound 1 µM, first compound 1 µM
[5] = second compound 1 µM, first compound 3.16 µM
[6] = second compound 1 µM, first compound 10 µM
[7] = second compound 3.16 µM, first compound 0.0316 µM
[8] = second compound 3.16 µM, first compound 0.1 µM
[9] = second compound 3.16 µM, first compound 0.316 µM
[10] = second compound 3.16 µM, first compound 1 µM
[11] = second compound 3.16 µM, first compound 3.16 µM
[12] = second compound 3.16 µM, first compound 10 µM
[13] = second compound 10 µM, first compound 0.0316 µM
[14] = second compound 10 µM, first compound 0.1 µM
[15] = second compound 10 µM, first compound 0.316 µM
[16] = second compound 10 µM, first compound 1 µM
[17] = second compound 10 µM, first compound 3.16 µM
[18] = second compound 10 µM, first compound 10 µM
[19] = second compound 31.6 µM, first compound 0.0316 µM
[20] = second compound 31.6 µM, first compound 0.1 µM
[21] = second compound 31.6 µM, first compound 0.316 µM
[22] = second compound 31.6 µM, first compound 1 µM
[23] = second compound 31.6 µM, first compound 3.16 µM
[24] = second compound 31.6 µM, first compound 10 µM
[25] = second compound 100 µM, first compound 0.0316 µM
[26] = second compound 100 µM, first compound 0.1 µM
[27] = second compound 100 µM, first compound 0.316 µM
[28] = second compound 100 µM, first compound 1 µM
[29] = second compound 100 µM, first compound 3.16 µM
[30] = second compound 100 µM, first compound 10 µM

Structure (SMILES): CC(C)n1c(=O)n(C)c2cnc3cc(F)c(-c4ccc(OCCCN5CCCCC5)nc4)cc3c21 + Cn1nnc2c(C(N)=O)ncn2c1=O
- pIC50 (second compound 1 µM): < 5.00
- pIC50 (second compound 3.16 µM): < 5.00
- pIC50 (second compound 10 µM): 5.13
- pIC50 (second compound 31.6 µM): 5.31
- pIC50 (second compound 100 µM): 5.98
- viability, T/C [1]: 99.6%
- viability, T/C [2]: 90.9%
- viability, T/C [3]: 93.2%
- viability, T/C [4]: 101%
- viability, T/C [5]: 99.6%
- viability, T/C [6]: 54.7%
- viability, T/C [7]: 101%
- viability, T/C [8]: 92.5%
- viability, T/C [9]: 98.8%
- viability, T/C [10]: 102%
- viability, T/C [11]: 88.4%
- viability, T/C [12]: 50.9%
- viability, T/C [13]: 87.1%
- viability, T/C [14]: 97.7%
- viability, T/C [15]: 94.3%
- viability, T/C [16]: 79.9%
- viability, T/C [17]: 75.6%
- viability, T/C [18]: 41.6%
- viability, T/C [19]: 93%
- viability, T/C [20]: 84.5%
- viability, T/C [21]: 86.1%
- viability, T/C [22]: 76.8%
- viability, T/C [23]: 63.5%
- viability, T/C [24]: 29.5%
- viability, T/C [25]: 70.5%
- viability, T/C [26]: 69.6%
- viability, T/C [27]: 64.2%
- viability, T/C [28]: 51.5%
- viability, T/C [29]: 31%
- viability, T/C [30]: 24.9%

Structure (SMILES): CC1COCCN1c1cc(-c2ccnn2C)c2ccnc(-c3ccn[nH]3)c2n1 (stereo not given) + Cn1nnc2c(C(N)=O)ncn2c1=O
- pIC50 (second compound 1 µM): 7.17
- pIC50 (second compound 3.16 µM): 7.15
- pIC50 (second compound 10 µM): 7.17
- pIC50 (second compound 31.6 µM): 7.42
- pIC50 (second compound 100 µM): > 7.50
- viability, T/C [1]: 71.4%
- viability, T/C [2]: 38.7%
- viability, T/C [3]: 15.1%
- viability, T/C [4]: 6.03%
- viability, T/C [5]: 3.67%
- viability, T/C [6]: 3.45%
- viability, T/C [7]: 76.6%
- viability, T/C [8]: 38.2%
- viability, T/C [9]: 11.3%
- viability, T/C [10]: 5.45%
- viability, T/C [11]: 3.38%
- viability, T/C [12]: 2.94%
- viability, T/C [13]: 73.8%
- viability, T/C [14]: 37.9%
- viability, T/C [15]: 12.3%
- viability, T/C [16]: 5.29%
- viability, T/C [17]: 2.98%
- viability, T/C [18]: 3.83%
- viability, T/C [19]: 55.4%
- viability, T/C [20]: 23.2%
- viability, T/C [21]: 9.1%
- viability, T/C [22]: 4.96%
- viability, T/C [23]: 3.48%
- viability, T/C [24]: 3.25%
- viability, T/C [25]: 33.5%
- viability, T/C [26]: 12.6%
- viability, T/C [27]: 6.3%
- viability, T/C [28]: 3.95%
- viability, T/C [29]: 3.48%
- viability, T/C [30]: 2.85%

Structure (SMILES): COc1cc(C)[nH]c(=O)c1CN1CCc2c(Cl)cc(C(OC)C3COC3)c(Cl)c2C1=O (stereo not given) + Cn1nnc2c(C(N)=O)ncn2c1=O
- pIC50 (second compound 1 µM): < 5.00
- pIC50 (second compound 3.16 µM): < 5.00
- pIC50 (second compound 10 µM): < 5.00
- pIC50 (second compound 31.6 µM): < 5.00
- pIC50 (second compound 100 µM): < 5.00
- viability, T/C [1]: 92.5%
- viability, T/C [2]: 90.5%
- viability, T/C [3]: 91.2%
- viability, T/C [4]: 86.1%
- viability, T/C [5]: 77.5%
- viability, T/C [6]: 76.7%
- viability, T/C [7]: 98.1%
- viability, T/C [8]: 90.2%
- viability, T/C [9]: 90.3%
- viability, T/C [10]: 94.4%
- viability, T/C [11]: 85%
- viability, T/C [12]: 82.3%
- viability, T/C [13]: 98.2%
- viability, T/C [14]: 93.5%
- viability, T/C [15]: 96.1%
- viability, T/C [16]: 83.8%
- viability, T/C [17]: 87.8%
- viability, T/C [18]: 81.4%
- viability, T/C [19]: 97.1%
- viability, T/C [20]: 89.8%
- viability, T/C [21]: 99.3%
- viability, T/C [22]: 100%
- viability, T/C [23]: 88.5%
- viability, T/C [24]: 80.2%
- viability, T/C [25]: 88.7%
- viability, T/C [26]: 96.3%
- viability, T/C [27]: 84.2%
- viability, T/C [28]: 80.7%
- viability, T/C [29]: 77.3%
- viability, T/C [30]: 76.1%

Structure (SMILES): COc1ccc([C@@H](O)c2cc(-c3ncnc4cc(N5CCOCC5)ccc34)c(F)cc2Cl)nn1 + Cn1nnc2c(C(N)=O)ncn2c1=O
- pIC50 (second compound 1 µM): 6.10
- pIC50 (second compound 3.16 µM): 5.82
- pIC50 (second compound 10 µM): 5.74
- pIC50 (second compound 31.6 µM): 5.85
- pIC50 (second compound 100 µM): 6.09
- viability, T/C [1]: 95.7%
- viability, T/C [2]: 89.6%
- viability, T/C [3]: 91.7%
- viability, T/C [4]: 39.6%
- viability, T/C [5]: 38.3%
- viability, T/C [6]: 11%
- viability, T/C [7]: 115%
- viability, T/C [8]: 97.8%
- viability, T/C [9]: 82.5%
- viability, T/C [10]: 60.7%
- viability, T/C [11]: 32.3%
- viability, T/C [12]: 10%
- viability, T/C [13]: 97.1%
- viability, T/C [14]: 103%
- viability, T/C [15]: 85.2%
- viability, T/C [16]: 65.1%
- viability, T/C [17]: 36.2%
- viability, T/C [18]: 10.9%
- viability, T/C [19]: 101%
- viability, T/C [20]: 96.2%
- viability, T/C [21]: 93.4%
- viability, T/C [22]: 55.6%
- viability, T/C [23]: 30.3%
- viability, T/C [24]: 10.2%
- viability, T/C [25]: 83.8%
- viability, T/C [26]: 82.3%
- viability, T/C [27]: 66.8%
- viability, T/C [28]: 42.9%
- viability, T/C [29]: 28.6%
- viability, T/C [30]: 9.15%
